Measurements published in US12478677B2, “Tunable luminescent organic salts for enhanced imaging and photodynamic therapy” (BOARD OF TRUSTEES OF MICHIGAN STATE UNIVERSITY, priority 2017, dated 2025).
“Also recorded” adds a separate entry of the source. Read-outs that look alike come from different tables or passages of the source.

Tests used:
[1] = Absorption and emission spectra; assay type: physicochemical
Experimental: FIGS. 8A-8F. Non-toxic cation-anion pair enhances live cell IR fluorescence imaging. FIG. 8A is a graph showing tunable organic salts absorb and emit in the IR (700-1200 nm) and eliminate background noise from absorbance/emission tissue components such as melanin, water, oxyhemoglobin (Hb-O2) and hemoglobin (Hb). […] A549 cells were incubated with vehicle, 1 μM CyPF6, or 1 μM CyTPFB with or without IR (850 nm) excitation. Cell viability determined by trypan blue staining and cell counting. (D) CyTPFB staining in A549 cells. (E) DNA staining using 4',6-diamidino-2-phenylindole (DAPI). (F) Superimposed CyTPFB+DAPI staining. Effective fluorescence dyes must be non-toxic for live cell imaging. […] Further developed are luminescent dyes that absorb and emit in the optical tissue window for imaging without background absorption/emission from components of tissue such as water, hemoglobin, and melanin, as shown in FIG. 8A. Heptamethine cyanine (Cy^+) is a photoactive cation that absorbs and emits in IR wavelengths, with an excitation/emission maximum of 830/848 nm, as shown in FIG. 8B. The deeper excitation and emission of Cy^+ provide an advantage over Cy7 (excitation/emission maximum of 750/773 nm), allowing imaging at greater tissue depths. […] Imaging live cells with these toxic cation-anion pairs requires usage of low doses that result in low absorbance and emission, resulting in poor quality images. […] CyTPFB is non-toxic to cells even at greater than 20-fold higher concentrations of 20 μM. The non-toxic nature of CyTPBF allows use of high doses in eukaryotic and prokaryotic cells for enhanced IR imaging with greater brightness, as shown in FIGS. 8D-8F for a eukaryotic cell example.

[2] = system: A549 cells; assay: Viability studies (trypan blue staining and cell counting) with or without IR excitation; assay type: cell-based, human; conditions: for Concentration at which cytotoxic: cells, toxic at low concentration, even without IR light; for IC50: linear regression analysis; for Phototoxicity with IR excitation, in words: IR (850 nm) excitation; for Toxicity in words, dark and light: with or without IR (850 nm) excitation; for Toxicity in the dark, in words: without IR excitation
Experimental: The cell lines human lung carcinoma (A549), metastatic human melanoma (WM1158) and Vemurafenib-resistant melanoma (Sk-Mel-28-Vem^R) are used. Sk-Mel-28-Vem^R is generated by culturing a parental melanoma cell lines in the presence of 2 μM Vemurafenib for 2 months. Acquired Vemurafenib resistance is defined by >1 log change in IC50 between nonresistant and resistant cell lines. Resistance is maintained through media supplementation with 2 μM Vemurafenib, which is changed every 48 hours. All cells are cultured in DMEM without pyruvate with 10% heat inactivated fetal bovine serum supplemented with glutamine and penicillin/streptomycin, and incubated in 37° C. with 5% CO2.
A549 and WM1158 cells are seeded at a density of 50,000 cells per well in 6-well tissue culture plates. After 24 hours of incubation, media is aspirated and replaced with media containing luminescent dyes at indicated concentrations. Each well is irradiated with an 850 nm LED lamp with an illumination rate of 526 mW/cm^2 for an hour in the incubator, and control cells are left in a dark incubator without irradiation. For studies with Cy7, a 740 nm LED lamp is used instead of an 850 nm, but with a similar illumination flux. Immediately after irradiation, the media is replenished with fresh dye-laced media and allowed to incubate for another 24 hours. […] Viable cell number is determined at 24 and 96 hours using trypan blue staining and a Nexcelom Cellometer Auto T4 cell counter. All assays are done with 3 biological replicates. The fold change in cell proliferation over days of treatment was calculated using the following equation.

[3] = Salt integrity and aggregation in cell media (mass spectrometry, electron microscopy, UV-Vis); assay type: physicochemical; conditions: for Integrity of salt pairing in cellular environments: high resolution mass spectrometry, electron microscopy, UV-Vis spectroscopy
Source text: FIGS. 7A-7C. […] Organic salts were first dissolved in DMSO and then diluted in water, forming nanoparticles. […] Combinations of H- and J-aggregation of organic salts can be seen by blue-shifted peaks (lower wavelength) and red-shifted peaks (higher wavelength), respectively. The nanoparticles with small hard anions redissolve in cell media likely due to sterics. […] This is achieved by cation-anion pairs of luminescent organic salts that can be modulated to be either non-toxic for enhanced imaging, or phototoxic for improved PDT. […] IR polymethine cyanine dyes, which have been used as effective theranostics are described. […] This is thought to occur through a mechanism mitigated by tumor vascularization, increased retention in cancer cells, and mitochondrial depolarization. Once in the cell, they accumulate in the mitochondria and lysosomes, where irradiation induces generation of cytotoxic oxygen species. A strategy is described for preventing or inhibiting salt dissociation in cells: aggregates are formed via introduction of the salt into an aqueous media by a solvent vehicle, forming particles with diameters of about 5 nm in size with no precipitation observed. […] This is confirmed by high resolution mass spectrometry, electron microscopy, and UV-Vis spectroscopy. […] Normalized absorption data are sown in FIGS. 7A, 7B, and 7C. This is likely due to steric effects, where if the counterion radius is too small it is not able to protect the nanoparticle stability. This can be characterized by the volume-averaged effective spherical radius of the counterions, where the cutoff is at about 0.275 nm.

[4] = system: mitochondrial superoxide; assay: MitoSOX measurement of mitochondrial superoxide; assay type: cell-based, human; conditions: A549 cells treated 4 days at phototoxic concentrations; with or without light
Source text: FIG. 22. Luminescent organic salts generate mitochondrial ROS. […] MitoSOX is used to measure mitochondrial superoxide, and H2DCFDA for general cytoplasmic ROS in A549 cell treated with organic salts at indicated phototoxic concentrations for 4 days.
Photoactive agents accumulate in the mitochondria of cancer cells and generate reactive oxygen species (ROS) with light exposure, depolarizing the mitochondrial membrane potential to cause cell death. Small molecule protective agents that quench ROS have been used to decrease their phototoxicity. However, the exact type of ROS generated by each luminescent agent remains unclear. Photo-induced ROS include singlet oxygen, superoxide radical anion, hydrogen peroxide, hydroxyl radical and others (see FIG. 21). Superoxide is a highly reactive and biologically toxic species deployed in nature to kill invading organisms. It is often formed as a byproduct of mitochondrial respiration but is typically quenched by the highly efficient superoxide dismutase. Hydroxyl radicals are also highly reactive, damaging nearly all forms of biological molecules. Unlike superoxide radical, the hydroxyl radical cannot be easily quenched naturally via enzymes, and endogenous antioxidants are typically required. Singlet oxygen is the excited state of the common triplet oxygen (O2 ground state) and is highly reactive towards organic compounds. Singlet oxygen can be eliminated in mammalian systems by antioxidants. A range of nitroxy radicals can subsequently stem from superoxide (peroxynitrite) or peroxide (nitrogen dioxide) species. […] Each luminescent cation-anion pair generates specific ROS resonant with its own energy level, and cell types can be targeted by generating the key sensitizing ROS. For example, it is expected that CyFPhB is phototoxic (see FIGS. 11A and 11B and 12A and 12B) by generating reactive oxygen species, which can be resonant with its molecular orbital energy levels (FIG. 21). […] No cytoplasmic ROS is detected using general cytoplasmic ROS probe H2DCFDA. […]

[5] = In vivo imaging, organ and tumor localization in orthotopic breast cancer mouse model; conditions: 1 mg/kg intraperitoneal, after 72 hours
Experimental: Mice are dosed with 1 mg/kg of organic salt in PBS (phosphate buffered saline) via intraperitoneal injection. Live imaging is performed by anesthetizing the mice with 3% isofluorane and using a Leica M165FC microscope with a PE4000 LED light source, DFC9000GT camera, and LAS X imaging software. For internal imaging, mice are sacrificed once tumors reach a size of 20 mm^3 and organs of interest are retrieved and imaged using the system described previously.

[6] = A549 cells, 850 nm irradiation, read-out: IC50 850 nm
[7] = A549 cells, dark, no irradiation, read-out: IC50 Dark

| SMILES | Integrity of salt pairing in cellular environments [3] | IC50 [2, 6] [µM] | IC50 [2, 7] [µM] | Toxicity in words, dark and light ([2]; A549 cells) | Toxicity in the dark, in words ([2]; A549 cells) | further results |
| --- | --- | --- | --- | --- | --- | --- |
| C[N+]1=C(C=CC2=CC(=CC=C3N(CCCCCC(=O)ON4C(=O)CCC4=O)c4ccccc4C3(C)C)CCC2)C(C)(C)c2ccccc21.[Cl-] [Cy7, Cyanine7 NHS ester, reference compound] | – | – | – | – | – | Emission maximum [1]: 773 nm; Excitation maximum [1]: 750 nm; Toxicity of Cy7 salts, in words ([2]; A549 cells, with or without IR (740 nm) excitation): highly cytotoxic; Concentration at which cytotoxic [2]: 1000 nM |
| CCN1C(=CC=C2CCCC(C=CC3=[N+](CC)c4ccc5ccccc5c4C3(C)C)=C2Cl)C(C)(C)c2c1ccc1ccccc21.Fc1ccc([B-](c2ccc(F)cc2)(c2ccc(F)cc2)c2ccc(F)cc2)cc1 [CyFPhB] | maintained in cellular environments | 3.5 | 46 | phototoxic but not cytotoxic; also recorded: phototoxic (but not cytotoxic) | allow cell growth in the dark | Aggregation / nanoparticle behaviour in cell media, in words ([3]; cell media): forms small photoactive nanoparticles in cell media; Average nanoparticle size in cell media ([3]; cell media): < 10 nm; Phototoxicity with IR excitation, in words ([2]; A549 cells): most phototoxic; also recorded: cause significant cell death with IR excitation; also recorded: highly phototoxic; Phototoxicity with IR excitation, in words ([2]; A549 cells, listed as Cy^+ paired with FPhB): phototoxic; Toxicity in the dark, in words ([2]; A549 cells, listed as Cy^+ paired with FPhB^−): deactivates the dark cellular toxicity; Mitochondrial superoxide / ROS generation (MitoSOX), in words [4]: photo-generating ROS only with illumination; also recorded: photo-generating superoxide only with illumination |
| CCN1C(=CC=C2CCCC(C=CC3=[N+](CC)c4ccc5ccccc5c4C3(C)C)=C2Cl)C(C)(C)c2c1ccc1ccccc21.F[P-](F)(F)(F)(F)F [CyPF6] | – | 0.89 | 1.6 | toxic both in the dark and under IR (850 nm) illumination; also recorded: cytotoxic | cytotoxic | Localization in tumor versus other organs [5]: concentration of the organic salt to the tumor; Aggregation / nanoparticle behaviour in cell media, in words ([3]; cell media): lack of aggregation observed in cell media; Concentration at which cytotoxic [2]: < 2500 nM; Concentration at which cytotoxic ([2]; listed as Cy+ paired with PF6^−): 1600 nM; Mitochondrial superoxide / ROS generation (MitoSOX), in words [4]: catalyzing superoxide with or without light |
| CCN1C(=CC=C2CCCC(C=CC3=[N+](CC)c4ccc5ccccc5c4C3(C)C)=C2Cl)C(C)(C)c2c1ccc1ccccc21.FC(F)(F)c1cc([B-](c2cc(C(F)(F)F)cc(C(F)(F)F)c2)(c2cc(C(F)(F)F)cc(C(F)(F)F)c2)c2cc(C(F)(F)F)cc(C(F)(F)F)c2)cc(C(F)(F)F)c1 [CyTFM] | maintained in cellular environments | 29 | 125 | not toxic to cells in the dark and in the light | deactivates the dark cellular toxicity | – |
| CCN1C(=CC=C2CCCC(C=CC3=[N+](CC)c4ccc5ccccc5c4C3(C)C)=C2Cl)C(C)(C)c2c1ccc1ccccc21.Clc1c(Cl)c(Cl)c2c(c1Cl)O[P-]13(O2)(Oc2c(Cl)c(Cl)c(Cl)c(Cl)c2O1)Oc1c(Cl)c(Cl)c(Cl)c(Cl)c1O3 [CyTRIS] | maintained in cellular environments | 1200 | 1220 | not toxic to cells in the dark and in the light | deactivates the dark cellular toxicity | – |
| CCN1C(=CC=C2CCCC(C=CC3=[N+](CC)c4ccc5ccccc5c4C3(C)C)=C2Cl)C(C)(C)c2c1ccc1ccccc21 [Cy^+, 2-[2-[2-chloro-3-[2-(1,3-dihydro-3,3-dimethyl-1-ethyl-2H-benz[e]indol-2-ylidene)ethylidene]-1-cylohexen-1-yl]-ethenyl]-3,3-dimethyl-1-ethyl-1H-benz[e]indolium] | – | – | – | – | – | Emission maximum [1]: 848 nm; Excitation maximum [1]: 830 nm |
| [I-].[K+] [KI, reference compound] | – | – | – | not toxic; also recorded: does not cause toxicity in the dark or with light | – | – |
